Laboratory results as given in patent US20230133169A1, “EGFR INHIBITOR, COMPOSITION, AND METHOD FOR PREPARATION THEREOF” (BETTA PHARMACEUTICALS CO., LTD, priority 2019, published 2023).

Experiments:
A431 wild-type cell line = assay: A431 wild-type cell proliferation assay (CellTiter Glo); assay type: cell-based; conditions: Homo sapiens, A-431, 72 hours, CTG luminescence
Protocol: (§1) RPMI 1640, 10% FBS and 1% PS; DMEM, 10% FBS and 1% PS
(§2) a) The medium was preheated in a 37° C. water bath in advance.
(§3) b) Remove the cryogenic vials from the liquid nitrogen tank, quickly put it into a 37° C. water bath, and completely melt it in 1 min.
(§4) c) Transfer the cell suspension to a 15 mL centrifuge tube containing 8 mL of medium, and centrifuge at 1000 rpm for 5 min.
(§5) d) Discard the supernatant, resuspend the cells in 1 mL of culture medium, transfer it to a 75 cm^2 flask containing 15 mL of culture medium, and culture the cells in a incubator with 5% CO2 at 37° C.
(§6) b) Collect the cells in a 15 mL centrifuge tube and centrifuge at 1000 rpm for 5 min. Discard the supernatant, count to make the cell density at 1×10^4 cells/mL, and then place it in a incubator with 5% CO2 at 37° C.
(§7) a) Dilute the test compound (20 mM stock solution) to 10 mM with 100% DMSO as the starting concentration, and then serially dilute 3 times with a “9+0” concentration in 96-well dilution plate (Cat #P-05525, Labcyte);
(§8) b) Dilute compound solution thereof to 1:100 in medium to prepare 10-fold working solution.
(§9) a) Centrifuge the growth cells in logarithmic phase at 1000 rpm for 5 minutes, resuspend the cells in culture medium, and then count the cells;
(§10) b) Inoculate the cells into a 96-well cell culture plate with a density of 2000 cells/well;
(§11) a) 15 μl of compounds prepared at step 2 were added to cell plate, the final concentrations were […], 370.4, 123.5, 41.2, 13.7, 4.6, 1.5 and 0 nM, and the final concentration of DMSO was 0.1%. The blank control well was a culture medium (0.1% DMSO);
(§12) b) Incubate cells in an incubator for another 72 hours;
(§13) a) Take out the 96-well cell culture plate and add 50 μl of CTG reagent (CellTiter Glo kit, promega, Cat#G7573);
(§14) b) Shake the plate for 2 minutes and let cool at room temperature for 10 minutes;
(§15) c) Read luminous signal value with PerkinElmer reader.
(§16) The data were analyzed by GraphPad Prism 6.0 software to obtain the fitting curve of compound activity.
(§17) Fitting compound IC50 from nonlinear regression equation:
(§18) Y=Min+(Max−Min)/(1+10^((Log IC50−X)*slope));
(§19) X: Logarithm of compound concentration; Y: luminous signal value.

[1] = target: Ba/F3-Δ19del/T790M/C797S cells (Homo sapiens, UniProt P00533, T790M/C797S, cells depend on it, form not given); assay: Ba/F3-Δ19del/T790M/C797S cell proliferation assay (CellTiter Glo); assay type: cell-based; conditions: 72 hours, CTG luminescence, read-out: BaF3 Δ19del/T790M/C797S IC50
Ba/F3-Δ19del/T790M/C797S cells, sequence (P00533 with tags, fused parts or gaps DEL746-750/T790M/C797S, form open): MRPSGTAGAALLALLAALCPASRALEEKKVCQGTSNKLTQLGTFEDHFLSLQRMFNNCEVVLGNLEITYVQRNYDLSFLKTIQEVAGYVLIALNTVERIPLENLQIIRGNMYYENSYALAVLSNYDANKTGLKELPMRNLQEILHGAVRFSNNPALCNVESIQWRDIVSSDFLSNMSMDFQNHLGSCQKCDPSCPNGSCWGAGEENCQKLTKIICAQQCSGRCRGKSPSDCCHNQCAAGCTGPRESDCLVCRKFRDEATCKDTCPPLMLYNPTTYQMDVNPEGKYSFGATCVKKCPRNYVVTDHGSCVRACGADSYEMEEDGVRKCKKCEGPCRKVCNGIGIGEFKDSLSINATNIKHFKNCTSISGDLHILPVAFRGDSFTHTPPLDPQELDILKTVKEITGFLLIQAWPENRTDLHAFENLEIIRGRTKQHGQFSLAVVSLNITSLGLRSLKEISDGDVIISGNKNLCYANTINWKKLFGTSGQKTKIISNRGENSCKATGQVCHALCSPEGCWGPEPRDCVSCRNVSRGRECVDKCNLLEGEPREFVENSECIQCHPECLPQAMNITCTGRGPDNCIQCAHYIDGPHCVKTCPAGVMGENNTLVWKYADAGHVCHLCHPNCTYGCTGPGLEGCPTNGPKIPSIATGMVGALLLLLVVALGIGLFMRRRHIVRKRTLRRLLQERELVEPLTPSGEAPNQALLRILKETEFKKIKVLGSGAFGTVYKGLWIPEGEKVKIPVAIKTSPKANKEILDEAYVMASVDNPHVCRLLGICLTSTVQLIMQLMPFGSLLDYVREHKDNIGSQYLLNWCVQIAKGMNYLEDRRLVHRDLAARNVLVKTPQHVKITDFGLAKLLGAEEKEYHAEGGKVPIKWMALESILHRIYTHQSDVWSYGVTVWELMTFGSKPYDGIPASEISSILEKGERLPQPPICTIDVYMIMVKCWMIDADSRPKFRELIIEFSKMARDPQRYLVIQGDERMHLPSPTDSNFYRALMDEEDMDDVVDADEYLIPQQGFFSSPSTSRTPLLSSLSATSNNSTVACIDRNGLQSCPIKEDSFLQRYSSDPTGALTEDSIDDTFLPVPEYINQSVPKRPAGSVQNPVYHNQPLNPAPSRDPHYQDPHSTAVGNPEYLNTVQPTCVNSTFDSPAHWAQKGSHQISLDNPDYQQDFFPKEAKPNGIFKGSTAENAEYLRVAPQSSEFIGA
Protocol: as §1, §2, §3, §4, §5, §6, §7, §8, §9, §10, §11, §12, §13, §14, §15, §16, §17, §18, §19

EGFR Δ19del/T790M/C797S = EGFR Δ19del/T790M/C797S (Homo sapiens, UniProt P00533, T790M/C797S, form not given); assay: EGFR Δ19del/T790M/C797S kinase test (mobility variation analysis, Caliper EZ Reader); assay type: biochemical; conditions: kinase inhibition, top concentration 300 nM
EGFR Δ19del/T790M/C797S, sequence (P00533 with tags, fused parts or gaps DEL746-750/T790M/C797S, form open): as above
Protocol: Mobility variation analysis was performed to determine the affinity of the compound for EGFRΔ19del/T790M/C797S. The enzymatic reaction scheme is as follows:
1. Prepare 1*kinase buffer as follows.
2. Prepare compound concentration gradient: The test compound was tested at concentration of 300 nM, diluted with 100% DMSO solution in a 96-well plate to 100-fold final concentration, and then diluted to 3-fold concentration with Precision.10. Compound at each concentration was further diluted to 5-fold final concentration of intermediate dilution.
3. Add 5 μL of each prepared intermediate dilution compounds to the compound wells of 384-well plate respectively, and test the repeated wells of each concentration; add 5 μL of 5% DMSO into the negative control well and the positive control well respectively.
4. Prepare 2.5-fold final concentration of kinase solution with 1×Kinase buffer.
5. Add 10 μL of 2.5-fold final concentration of kinase solution to the compound well and the positive control well; add 10 μL of 1×Kinase buffer to the negative control well.
6. Centrifuge at 1000 rpm for 30 s, shake the reaction plate for well mixing, and then incubate at room temperature for 10 minutes.
7. Prepare a mixture of ATP and Kinase substrate (5-FAM-EEPLYWSFPAKKK-CONH2) at 2.5-fold final concentration with 1×Kinase buffer.
8. Add 10 μL mixture of ATP and substrate at 2.5-fold final concentration to start reaction.
9. Centrifuge the 384-well plate at 1000 rpm for 30 s, shake it well and then incubate it at room temperature for corresponding time.
10. Add 30 μL of stop detection solution to stop the kinase reaction, centrifuge at 1000 rpm for 30 s, and shake it well.
11. Read conversion rate with Caliper EZ Reader.
Convert the conversion rate to inhibition rate:
inhibition %=(max−conversion % sample)/(max−min)*100.
“max”: Mean value of negative control wells; “min”: Mean value of positive control wells; conversion % sample: Sample conversion reading.
GraphPad Prism 5 was used for % inhibition curve fitting to obtain the IC50 value.
The calculation formula: Y=inhibition %_min+(inhibition %_max−inhibition %_min)/(1+(IC50/X)^slope). wherein, Y is inhibition %; X is concentration of compound to be tested.

[2] = Pharmacokinetic experiment in rats, oral administration; assay type: in vivo; conditions: Sprague-Dawley (SD), rat, 5 mg/kg, male SD rats, 5 mpk, plasma
Protocol: Test 3 Pharmacokinetic Experiment
Male SD rats (3 rats in each group) were administered orally, and fasted overnight from at least 12 hours before administration to 4 hours after administration before the experiment. Blood was taken from the orbital vein. The time points of blood collection for oral administration were: 15 min, 30 min, 1 hr, 2 hr, 4 hr, 7 hr and 24 hr, the dosage of administration was 5 mpk, and the blood collection volume was 300 μL. After anticoagulant treatment with 2.0% EDTA, the blood was centrifuged at 4000 rpm for 5 min, and then about 100 μL was taken and placed for testing at −20° C. Plasma samples were analyzed by liquid chromatography tandem mass spectrometry (LC-MS/MS). The plasma concentration-time data of individual animals were analyzed by the non-compartment model of WinNonlin (V4.1, Pharsight) software, and the pharmacokinetic parameters of the compounds tested were calculated.

Structure (SMILES) | IC50 (A431 wild-type cell line) | GI50 [1] | IC50 (EGFR Δ19del/T790M/C797S) | AUC(0-t) [2] | Cmax [2] | half-life ([2]; read-out: t½ (converted))
CCc1cc(Nc2ncc(Cl)c(Nc3ccc(C4CCCC4)cc3P(C)(C)=O)n2)c(OC)cc1N1CCC(N2CCN(C)CC2)CC1 [Compound 7, (2-((5-Chloro-2-((5-ethyl-2-methoxy-4-(4-(4-methylpiperazin-1-yl)piperidin-1-yl)phenyl)amino)pyrimidin-4-yl)amino)-5-cyclopentylphenyl)dimethylphosphine oxide] | 1400 nM | 38.3 nM | 1.1 nM |  |  | 
COc1cc(N2CCC(N3CCN(C)CC3)CC2)ccc1Nc1ncc(Cl)c(Nc2ccc(C3CC3)cc2P(C)(C)=O)n1 [Compound 4] |  |  | 1.2 nM |  |  | 
COc1cc(N2CCC(N3CCN(C)CC3)CC2)ccc1Nc1ncc(Cl)c(Nc2ccc(C)cc2P(C)(C)=O)n1 [Control example 1, reference compound] |  | 49.9 nM | 2.7 nM |  |  | 
CCc1cc(Nc2ncc(Br)c(Nc3ccc(N4CCOCC4)cc3P(C)(C)=O)n2)c(OC)cc1N1CCC(N2CCN(C)CC2)CC1 [Compound 8] | 886 nM | 30.4 nM | 0.3 nM |  |  | 

Now from value to molecule:

IC50 (A431 wild-type cell line) | GI50 [1] | IC50 (EGFR Δ19del/T790M/C797S) | AUC(0-t) [2] | Cmax [2] | half-life ([2]; read-out: t½ (converted)) | Structure (SMILES)
543 nM | 9.7 nM | 0.3 nM |  |  |  | COc1cc(N2CCC(N3CCN(C)CC3)CC2)c(C)cc1Nc1ncc(Br)c(Nc2ccc(C3CC3)cc2P(C)(C)=O)n1 [Compound 10, (2-((5-Bromo-2-((2-methoxy-5-methyl-4-(4-(4-methylpiperazin-1-yl)piperidin-1-yl)phenyl)Amino)pyrimidin-4-yl)amino)-5-cyclopropylphenyl)dimethylphosphine oxide]
682 nM | 1.2 nM | 0.3 nM | 32900 ng·h/mL | 2100 ng/mL | 9.1 h | CCc1cc(Nc2ncc(Br)c(Nc3ccc(C4CC4)cc3P(C)(C)=O)n2)c(OC)cc1N1CCC(N2CCN(C)CC2)CC1 [Compound 1, (2-((5-Bromo-2-((5-ethyl-2-methoxy-4-(4-(4-methylpiperazin-1-yl)piperidin-1-yl)phenyl)amino)pyrimidin-4-yl)amino)-5-cyclopropylphenyl)dimethylphosphine oxide]
604 nM | 5.2 nM | 0.3 nM |  |  |  | COc1cc(N2CCC(N3CCN(C)CC3)CC2)c(-c2ccn(C)c2)cc1Nc1ncc(Br)c(Nc2ccc(C3CC3)cc2P(C)(C)=O)n1 [Compound 9, (2-((5-Bromo-2-((2-methoxy-5-(1-methyl-1H-pyrrol-3-yl)-4-(4-(4-methylpiperazine-1-yl)piperidin-1-yl)phenyl)amino)pyrimidin-4-yl)-amino)-5-cyclopropylphenyl)dimethylphosphine oxide]
 | 302 nM | 1.6 nM |  |  |  | CCc1cc(Nc2ncc(OC)c(Nc3ccc(C4CC4)cc3P(C)(C)=O)n2)c(OC)cc1N1CCC(N2CCN(C)CC2)CC1 [Compound 5]
674 nM | 15.6 nM | 0.7 nM |  |  |  | CCc1cc(Nc2ncc(Br)c(Nc3ccc(C4CCOCC4)cc3P(C)(C)=O)n2)c(OC)cc1N1CCC(N2CCN(C)CC2)CC1 [Compound 6, (2-((5-Bromo-2-((5-ethyl-2-methoxy-4-(4-(4-methylpiperazin-1-yl)piperidin-1-yl)phenyl)amino)pyrimidin-4-yl)amino)-5-(tetrahydro-2H-pyran-4-yl)phenyl)dimethylphosphine oxide]
268 nM | 7.2 nM | 0.4 nM |  |  |  | CCn1cc(-c2cc(Nc3ncc(Br)c(Nc4ccc(C5CC5)cc4P(C)(C)=O)n3)c(OC)cc2N2CCC(N3CCN(C)CC3)CC2)cn1 [Compound 2]
830 nM | 55.4 nM | 0.4 nM |  |  |  | CCn1cc(-c2cc(Nc3ncc(OC)c(Nc4ccc(C5CC5)cc4P(C)(C)=O)n3)c(OC)cc2N2CCC(N3CCN(C)CC3)CC2)cn1 [Compound 3, (5-Cyclopropyl-2-((2-((5-(1-ethyl-1H-pyrazol-4-yl)-2-methoxy-4-(4-(4-methylpiperazin-1-yl)piperidin-1-yl)phenyl)amino)-5-methoxypyrimidin-4-yl)amino)phenyl)dimethylphosphine oxide]
